Reference: US20210214758A1, “METHODS AND TOOLS FOR DETERMINING CLONAL RELATEDNESS AND PREDICTING CLONAL TRAITS” (priority 2018, published 2021)

Experiments:
Klebsiella isolates [1] = assay: Antibiotic susceptibility of Klebsiella clinical isolates per 7-SNP clonotype (Lookup Table 1; disk diffusion); format: cell-based, Klebsiella spp.
Description: In further embodiments, the Lookup Table is Lookup Table 1. The information contained in Lookup Table 1 below was obtained from urine specimens from patients with Klebsiella infections from several clinics within different regions of the United States. CT=clonotypes determined using a 7-SNP combination: phoE54; rpoB130; infB279; mdh315; phoE336; phoE354; and mdh429.
Next, antibiotic resistance was determined for all 387 Klebsiella isolates in the discovery set. Antibiotic testing was carried out according to the standard disk diffusion method as described in the Clinical and Laboratory Standards Institute (M100 Performance Standards for Antimicrobial Susceptibility Testing, 27th Edition, 2017). […] Since almost all Klebsiella isolates are known to be resistant to AMP and sensitive to IMI, TET is not used for treatment of urinary tract infections, and ESBL production is partially reflected in resistance to CTR, these antibiotics were not included for further analysis.
To aid in clinical decision-making and to translate clonotype information to treatment selection, Lookup Table 1 was generated. […] The information contained in Lookup Table 1 was obtained from urine specimens from patients with Klebsiella infections from several clinics within different regions of the United States. Indications of allowance or non-recommendation were determined based on a 20% resistance threshold to the indicated antibiotic; i.e., the antibiotic is recommended when more than 80% of the tested isolates within the indicated clonotype were susceptible to the indicated antibiotic, and was cautioned against when less than 80% of the isolates were susceptible to the antibiotic.

Klebsiella isolates [2] = settings: known; cited from earlier work

Question: For `CC1(C)S[C@@H]2[C@H](NC(=O)[C@H](N)c3ccccc3)C(=O)N2[C@H]1C(=O)O` [AMP, ampicillin], which “susceptibility, %” value (Klebsiella isolates [1]; CT 000) is on record?
Answer: 34%

Question: And the “susceptibility, %” value (Klebsiella isolates [1]; CT 001)?
Answer: 0%

Question: And the “susceptibility, %” value (Klebsiella isolates [1]; CT 010)?
Answer: 0%

Question: What about the “susceptibility, %” value (Klebsiella isolates [1]; CT 011) of the same compound?
Answer: 0%

Question: And the “susceptibility, %” value (Klebsiella isolates [1]; CT 031)?
Answer: 0%

Question: What about the “susceptibility, %” value (Klebsiella isolates [1]; CT 040) of the same compound?
Answer: 25%

Question: And the “susceptibility, %” value (Klebsiella isolates [1]; CT 050)?
Answer: 0%

Question: What about the “susceptibility, %” value (Klebsiella isolates [1]; CT 051) of the same compound?
Answer: 0%

Question: And the “susceptibility, %” value (Klebsiella isolates [1]; CT 071)?
Answer: 0%

Question: And the “susceptibility, %” value (Klebsiella isolates [1]; CT 100)?
Answer: 0%

Question: And the “susceptibility, %” value (Klebsiella isolates [1]; CT 110)?
Answer: 0%

Question: What about the “susceptibility, %” value (Klebsiella isolates [1]; CT 111) of the same compound?
Answer: 0%

Question: What about the “susceptibility, %” value (Klebsiella isolates [1]; CT 130) of the same compound?
Answer: 2%

Question: And the “susceptibility, %” value (Klebsiella isolates [1]; CT 131)?
Answer: 0%

Question: And the “susceptibility, %” value (Klebsiella isolates [1]; CT 141)?
Answer: 0%

Question: What about the “susceptibility, %” value (Klebsiella isolates [1]; CT 150) of the same compound?
Answer: 0%

Question: What about the “susceptibility, %” value (Klebsiella isolates [1]; CT 151) of the same compound?
Answer: 2%

Question: What about the “susceptibility, %” value (Klebsiella isolates [1]; CT 160) of the same compound?
Answer: 0%

Question: What about the “susceptibility, %” value (Klebsiella isolates [1]; CT 170) of the same compound?
Answer: 4%

Question: What about the “susceptibility, %” value (Klebsiella isolates [1]; CT 171) of the same compound?
Answer: 0%

Question: And the “susceptibility, %” value (Klebsiella isolates [1]; CT 200)?
Answer: 9%

Question: What about the “susceptibility, %” value (Klebsiella isolates [1]; CT 201) of the same compound?
Answer: 6%

Question: And the “susceptibility, %” value (Klebsiella isolates [1]; CT 210)?
Answer: 0%

Question: And the “susceptibility, %” value (Klebsiella isolates [1]; CT 211)?
Answer: 2%

Question: And the “susceptibility, %” value (Klebsiella isolates [1]; CT 230)?
Answer: 0%

Question: And the “susceptibility, %” value (Klebsiella isolates [1]; CT 231)?
Answer: 0%

Question: And the “susceptibility, %” value (Klebsiella isolates [1]; CT 240)?
Answer: 0%

Question: What about the “susceptibility, %” value (Klebsiella isolates [1]; CT 241) of the same compound?
Answer: 0%

Question: What about the “susceptibility, %” value (Klebsiella isolates [1]; CT 250) of the same compound?
Answer: 0%

Question: And the “susceptibility, %” value (Klebsiella isolates [1]; CT 251)?
Answer: 0%

Question: And the “susceptibility, %” value (Klebsiella isolates [1]; CT 271)?
Answer: 0%

Question: What about the “susceptibility, %” value (Klebsiella isolates [1]; CT 300) of the same compound?
Answer: 0%

Question: And the “susceptibility, %” value (Klebsiella isolates [1]; CT 301)?
Answer: 0%

Question: And the “susceptibility, %” value (Klebsiella isolates [1]; CT 310)?
Answer: 0%

Question: What about the “susceptibility, %” value (Klebsiella isolates [1]; CT 311) of the same compound?
Answer: 0%

Question: What about the “susceptibility, %” value (Klebsiella isolates [1]; CT 330) of the same compound?
Answer: 0%

Question: And the “susceptibility, %” value (Klebsiella isolates [1]; CT 331)?
Answer: 1%

Question: What about the “susceptibility, %” value (Klebsiella isolates [1]; CT 350) of the same compound?
Answer: 0%

Question: What about the “susceptibility, %” value (Klebsiella isolates [1]; CT 351) of the same compound?
Answer: 0%

Question: What about the “susceptibility, %” value (Klebsiella isolates [1]; CT 370) of the same compound?
Answer: 0%

Question: What about the “susceptibility, %” value (Klebsiella isolates [1]; CT 371) of the same compound?
Answer: 0%

Question: And the “susceptibility, %” value (Klebsiella isolates [1]; CT 411)?
Answer: 0%

Question: And the “susceptibility, %” value (Klebsiella isolates [1]; CT 450)?
Answer: 0%

Question: What about the “susceptibility, %” value (Klebsiella isolates [1]; CT 451) of the same compound?
Answer: 0%

Question: What about the “susceptibility, %” value (Klebsiella isolates [1]; CT 510) of the same compound?
Answer: 0%

Question: What about the “susceptibility, %” value (Klebsiella isolates [1]; CT 511) of the same compound?
Answer: 0%

Question: What about the “susceptibility, %” value (Klebsiella isolates [1]; CT 530) of the same compound?
Answer: 0%

Question: And the “susceptibility, %” value (Klebsiella isolates [1]; CT 531)?
Answer: 0%

Question: What about the “susceptibility, %” value (Klebsiella isolates [1]; CT 550) of the same compound?
Answer: 0%

Question: And the “susceptibility, %” value (Klebsiella isolates [1]; CT 551)?
Answer: 0%

Question: What about the “susceptibility, %” value (Klebsiella isolates [1]; CT 570) of the same compound?
Answer: 0%

Question: And the “susceptibility, %” value (Klebsiella isolates [1]; CT 571)?
Answer: 0%

Question: What about the “susceptibility, %” value (Klebsiella isolates [1]; CT 611) of the same compound?
Answer: 0%

Question: And the “susceptibility, %” value (Klebsiella isolates [1]; CT 630)?
Answer: 0%

Question: And the “susceptibility, %” value (Klebsiella isolates [1]; CT 650)?
Answer: 0%

Question: And the “susceptibility, %” value (Klebsiella isolates [1]; CT 651)?
Answer: 4%

Question: What about the “susceptibility, %” value (Klebsiella isolates [1]; CT 670) of the same compound?
Answer: 0%

Question: And the “susceptibility, %” value (Klebsiella isolates [1]; CT 710)?
Answer: 0%

Question: And the “susceptibility, %” value (Klebsiella isolates [1]; CT 730)?
Answer: 0%

Question: What about the “susceptibility, %” value (Klebsiella isolates [1]; CT 731) of the same compound?
Answer: 0%

Question: And the “susceptibility, %” value (Klebsiella isolates [1]; CT 750)?
Answer: 0%

Question: And the “susceptibility, %” value (Klebsiella isolates [1]; CT 751)?
Answer: 17%

Question: And the “susceptibility, %” value (Klebsiella isolates [1]; CT 771)?
Answer: 0%

Question: What about the “susceptibility, %” value (Klebsiella isolates [1]; CT Any Klebsiella spp.) of the same compound?
Answer: 6%

Question: And the “resistance or sensitivity of almost all Klebsiella isolates” value (Klebsiella isolates [2])?
Answer: resistant
